Source: PMC11079024, “Identification of a family of species-selective complex I inhibitors as potential anthelmintics” (Nature Communications, 2024)
Several values for one entry are separate records, joined by “and”; a condition that tells them apart may be missing. Identical values can stand only once. Like-named read-outs stand apart in the source and are kept apart here.

Tested on: L1 wild-type C. elegans
Assay: 15-hour motility assay with drug alone (no KCN)
Format: cell-based, Caenorhabditis elegans
[1] = 15 hour drug alone (without KCN) treatment, dose 0.1 µM, Mean of replicates
[2] = 15 hour drug alone (without KCN) treatment, dose 0.1 µM, individual replicates
[3] = 15 hour drug alone (without KCN) treatment, dose 0.2 µM, Mean of replicates
[4] = 15 hour drug alone (without KCN) treatment, dose 0.2 µM, individual replicates
[5] = 15 hour drug alone (without KCN) treatment, dose 0.4 µM, Mean of replicates
[6] = 15 hour drug alone (without KCN) treatment, dose 0.4 µM, individual replicates
[7] = 15 hour drug alone (without KCN) treatment, dose 0.8 µM, Mean of replicates
[8] = 15 hour drug alone (without KCN) treatment, dose 0.8 µM, individual replicates
[9] = 15 hour drug alone (without KCN) treatment, dose 3.1 µM, Mean of replicates
[10] = 15 hour drug alone (without KCN) treatment, dose 3.1 µM, individual replicates
[11] = 15 hour drug alone (without KCN) treatment, dose 6.3 µM, Mean of replicates
[12] = 15 hour drug alone (without KCN) treatment, dose 6.3 µM, individual replicates
[13] = 15 hour drug alone (without KCN) treatment, dose 12.5 µM, Mean of replicates
[14] = 15 hour drug alone (without KCN) treatment, dose 12.5 µM, individual replicates
[15] = 15 hour drug alone (without KCN) treatment, dose 25 µM, Mean of replicates
[16] = 15 hour drug alone (without KCN) treatment, dose 25 µM, individual replicates
[17] = 15 hour drug alone (without KCN) treatment, dose 50 µM, Mean of replicates
[18] = 15 hour drug alone (without KCN) treatment, dose 50 µM, individual replicates
[19] = 15 hour drug alone (without KCN) treatment, dose 100 µM, Mean of replicates
[20] = 15 hour drug alone (without KCN) treatment, dose 100 µM, individual replicates

Compound	Value relative to DMSO control, drug alone (without KCN) [1]	Value relative to DMSO control, drug alone (without KCN) [2]	Value relative to DMSO control, drug alone (without KCN) [3]	Value relative to DMSO control, drug alone (without KCN) [4]	Value relative to DMSO control, drug alone (without KCN) [5]	Value relative to DMSO control, drug alone (without KCN) [6]	Value relative to DMSO control, drug alone (without KCN) [7]	Value relative to DMSO control, drug alone (without KCN) [8]	Value relative to DMSO control, drug alone (without KCN) [9]	Value relative to DMSO control, drug alone (without KCN) [10]	Value relative to DMSO control, drug alone (without KCN) [11]	Value relative to DMSO control, drug alone (without KCN) [12]	Value relative to DMSO control, drug alone (without KCN) [13]	Value relative to DMSO control, drug alone (without KCN) [14]	Value relative to DMSO control, drug alone (without KCN) [15]	Value relative to DMSO control, drug alone (without KCN) [16]	Value relative to DMSO control, drug alone (without KCN) [17]	Value relative to DMSO control, drug alone (without KCN) [18]	Value relative to DMSO control, drug alone (without KCN) [19]	Value relative to DMSO control, drug alone (without KCN) [20]	further results
O=C(NCCc1ccc(Cl)cc1)c1ccccc1C(F)(F)F [Wact-11]	1.053	0.994 and 1.015 and 1.070 and 1.131	1.080	0.940 and 1.013 and 1.214 and 1.154	1.046	0.988 and 1.230 and 1.034	1.007	0.912 and 0.907 and 0.949 and 1.257	0.983	0.954 and 0.915 and 1.162 and 0.901	0.923	0.914 and 0.918 and 0.975 and 0.884	0.780	0.693 and 0.662 and 1.090 and 0.677	0.783	0.523 and 0.436 and 0.991 and 1.184	0.600	0.549 and 0.392 and 0.803 and 0.657	0.425	0.232 and 0.150 and 0.884 and 0.433	Value relative to DMSO control, drug alone (without KCN): 0.932
Cc1cc(O)c2c(c1)O[C@@]1(C)CC[C@H]3C(C)(C)CCC[C@]34CO[C@@H]2[C@H]41 [Siccanin]	1.015	1.185 and 1.067 and 1.014 and 0.891 and 0.918	1.093	1.232 and 1.040 and 1.048 and 0.936 and 1.206	1.048	1.109 and 1.211 and 1.036 and 0.917 and 0.964	1.013	1.207 and 1.062 and 0.959 and 0.891 and 0.945	1.008	1.037 and 1.098 and 0.979 and 0.904 and 1.020	0.898	0.890 and 0.970 and 0.950 and 0.655 and 1.026	0.790	1.073 and 0.897 and 0.844 and 0.477 and 0.657	0.737	0.991 and 0.757 and 0.575 and 0.705 and 0.658	0.668	0.587 and 0.826 and 0.603 and 0.513 and 0.810	0.433	0.545 and 0.463 and 0.295 and 0.375 and 0.488	
